In patent publication US6121431A, “Nucleoside derivatives” (Medivir AB, priority 1990, dated 2000):

What was measured:
[1] = test system: human immuno deficiency virus; test: Effect of compounds of the formula I on HIV in H9 cells (HIV multiplication in cell culture, HIV antigen containing cells); assay type: cell-based; details: Human immunodeficiency virus 1, HIV (HTLV-IIIB), 6-7 days, 37° C., read-out: Concentration for 50% inhibition (IC50) of human immuno deficiency virus multiplication in cell culture
Experimental: Test I. Effect of compounds of the formula I on HIV in H9 cells
HIV Infection of H9 Cells
H9 cells, 10^5 cells per well on a 24 well plate, suspended in 2 ml RPMI-medium containing 10% fetal calf serum […] penicillin, 10 mg/mil streptomycin sulfate and 2 mg/ml polybrene are exposed to HIV (HTLV-IIIB) and different concentrations of the test compounds. The plates are incubated at 37° C. in 5% CO2 for 6-7 days. The contents in each well is then homogenized with a pipette and transferred to a centrifuge tube. After centrifugation for 10 min at 1500 rpm the supernatant is removed and the cell pellet is analyzed by fixing in methanol on glass plates. Human HIV positive serum diluted 1:80 or 1:160 is added and incubated for 30 min at 37° C. The plate is then washed with phosphate-buffered saline (PBS) containing Ca^2+ and Mg^2+. Sheep antihuman conjugate (FITC) is added and after a new incubation the plate is again washed with PBS. Contrast staining is done with Evans blue and after drying the frequency of HIV antigen containing cells is determined in a microscope.

H9 cells = test: Cellular toxicity on H9 cells (inhibition of cell multiplication); assay type: cell-based; details: Homo sapiens, 1 mM, 48 h
Experimental: Test II. Cellular toxicity
H9 cells, 2×10^7 cells per plate, are incubated in RPMI-1640 medium containing 10% fetal calf serum, 70 mg/l penicillin, 100 mg/l streptomycin and 10 mM hepes, in absence or presence of test compounds. The number of cells per plate is determined after 48 h. Cells incubated in the absence of test compounds then underwent two cell division cycles.
F5000 cells, which are human embryo cells, 1×10^5 cells per plate, are incubated in Eagle's minimal essential medium, supplemented with Earle's sals, non-essential amino acids, 10% fetal calf serum, 10 mM hepes, 70 mg/l penicillin and 100 mg/l streptomycin, in absence or presence of test compounds. The number of cells per plate is determined after 48 h. Cells incubated in the absence of test compounds underwent one cell division cycle.

Compound	IC50 [1] [µM]	inhibition at 1000 µM (H9 cells) [%]
Cc1cn([C@@H]2C[C@H](CO)[C@@H](CO)O2)c(=O)[nH]c1=O [1-(2',3'-Dideoxy-3'-C-(hydroxymethyl)-α-D-erythro-pentafuranosyl]thymine]	10	–
Cc1cn([C@H]2C[C@H](CO)[C@@H](CO)O2)c(=O)[nH]c1=O [1-[2',3'-Dideoxy-3'-C-(hydroxymethyl)-β-D-erythro-pentofuranosyl]-thymine]	5	–
Nc1ncnc2c1ncn2[C@@H]1C[C@H](CO)[C@@H](CO)O1 [9-[2',3'-Dideoxy-3'-C-(hydroxymethyl)-α-D-erythropentofuranosyl]-adenosine]	10	–

The next lines start with results.

IC50 [1] [µM]	Compound	inhibition at 1000 µM (H9 cells) [%]
0.01	Nc1ccn([C@H]2C[C@H](CO)[C@@H](CO)O2)c(=O)n1 [1-2',3'-Dideoxy-3'-C-(hydroxymethyl)-β-D-erythropentofuranosyl]-cytosine]	50
5	Nc1ccn([C@@H]2C[C@H](CO)[C@@H](CO)O2)c(=O)n1 [1-[2',3'-Dideoxy-3'-C-(hydroxymethyl)-α-D-erythro-pentafuranosyl]cytosine]	–
